Source: patent US8415300B2, “Sustained release of microcrystalline peptide suspensions” (Medical Research Council Technology, priority 2001, dated 2013)
Structures can show the parent of a compound that is named as a salt. Starred links: 1 amine or outer side, 2 acyl side, 3 side chain; linkers in the order of their positions; H or OH if unused. Positions of bridges follow the written chain, without caps; N, C: chain ends. Non-standard residues stand in square brackets, D forms with d. Residues, ends and D or L forms follow the SMILES beside them. Groups on a side chain read outwards from the residue. No end group written: not given here. *: point of attachment. dTrp(2-Me) = Cc1[nH]c2ccccc2c1C[C@@H](N)C(=O)O; Trp(2-Me) = Cc1[nH]c2ccccc2c1C[C@H](N)C(=O)O; dPhe(4-Cl) = N[C@H](Cc1ccc(Cl)cc1)C(=O)O; d2Nal = N[C@H](Cc1ccc2ccccc2c1)C(=O)O; d(hCit) = NC(=O)NCCCC[C@@H](N)C(=O)O; Lys(iPr) = CC(C)NCCCC[C@H](N)C(=O)O; Ethylenediamine = C(CN[*:2])N[*:1]; Hyp = O=C(O)[C@@H]1C[C@@H](O)CN1; dCit = NC(=O)NCCC[C@@H](N)C(=O)O; d3Pal = N[C@H](Cc1cccnc1)C(=O)O; Phg = N[C@H](C(=O)O)c1ccccc1; CO = O=C([*:1])[*:2]; Bn = c1ccc(C*)cc1

Columns and labels:
[1] = Physical form (gel or flowing milky microcrystalline suspension) of the peptide salt mixed with aqueous medium or counter-ion acid; type: physicochemical
Procedure: Such behavior is not elicited by other salts such as the acetate, which result in the expected, but unwanted, formation of gels with poor bioavailability in vivo.
(§1) 200 μL of 5% mannitol were added to approximately 15 mg of the LHRH antagonist Teverelix trifluoroacetate. […] The suspension is made of microcrystals of about 10 μm length. Microcrystals may clump together to form urchin like structures. The suspension was injected in rats (1 mg) sub-cutaneously and provided the pharmacodynamic effect of testosterone suppression for more than 45 days (FIG. 1).
200 μL of water were added to approximately 15 mg of the LHRH antagonist Teverelix trifluoroacetate.
200 μL of water were added to approximately 15 mg of the LHRH antagonist Teverelix acetate.
In another study, 100 μL of TFA of various concentrations were added to 7.5 mg of the LHRH antagonist Teverelix acetate, with the TFA/Teverelix molar ratio ranging from 1 to 3.
200 μL of 150 mM TFA were added to amounts of the LHRH antagonist Teverelix acetate ranging from 5 to 30 mg (concentration ranging from 25 to 150 mg/mL).
The suspension was freeze-dried overnight.
(§2) The suspension was freeze-dried overnight. […] These suspensions were stable for at least 3 days at room temperature.
The suspension is made of microcrystals of about […] length. Microcrystals may assemble together to form urchin like structures. The suspension was freeze-dried overnight. […]

[2] = Pharmacokinetic analysis: sustained release of the peptide after injection of the suspension; type: in vivo, rats
Procedure: FIG. 2 is a graph which illustrates the sustained release of the peptide Teverelix for several weeks in rats injected with the suspension of Teverelix trifluoroacetate according to the invention.
as §1

[3] = Stability of reconstituted suspensions at room temperature; type: physicochemical; details: reconstituted with water and 0.2 M acetate buffer pH 4.0
Excerpt: as §2

[4] = 100 μL of 150 mM trifluoroacetic acid solution added to 7.5 mg

## NCCCC[C@@H]1NC(=O)[C@@H](Cc2c[nH]c3ccccc23)NC(=O)[C@H](c2ccccc2)NC(=O)[C@@H]2C[C@@H](OC(=O)NCCN)CN2C(=O)[C@H](Cc2ccccc2)NC(=O)[C@H](Cc2ccc(OCc3ccccc3)cc2)NC1=O [SOM 230, ETD-carboxy-c[Hyp-Phg-D-Trp-Lys-Tyr(Bzl)-Phe], reference compound] (cyclo([Hyp]([CO-Ethylenediamine])[Phg][dW]KY(Bn)F))
[1]; 100 μL of 5% mannitol-water solution added to approximately 5 mg
  physical form after mixing: milky free flowing suspension

## Ac-D-Nal-D-pClPhe-D-Pal-Ser-Tyr-D-Hci-Leu-Lys(iPr)-Pro-D-Ala-NH2 [Teverelix hydrochloride]
[1]; 100 μL of 150 mM benzenesulfonic acid added to 7.5 mg
  physical form after mixing: free flowing suspension

## [dF]CY[dW]KVC[Trp(2-Me)]-NH2 (disulfide 2-7)
[1]; [4]
  physical form after mixing: Free flowing suspensions

## Ac-D-Nal-D-pClPhe-D-Pal-Ser-Tyr-D-Hci-Leu-Lys(iPr)-Pro-D-Ala-NH2 [Teverelix]
[2]; highly concentrated aqueous suspension of TFA or sulfate salt injected parenterally, general statement (FIGS. 1 and 2)
  release of the active principle, duration: several weeks
[1]; as trifluoroacetate (TFA) or sulfate salt, general statement
  physical form of highly concentrated aqueous suspension: microcrystalline milky suspension

## CC(=O)N[C@H](Cc1ccc2ccccc2c1)C(=O)N[C@H](Cc1ccc(Cl)cc1)C(=O)N[C@H](Cc1cccnc1)C(=O)N[C@@H](CO)C(=O)N[C@@H](Cc1ccc(O)cc1)C(=O)N[C@H](CCCNC(N)=O)C(=O)N[C@@H](CC(C)C)C(=O)N[C@@H](CCCNC(=N)N)C(=O)N1CCC[C@H]1C(=O)N[C@H](C)C(N)=O [Cetrorelix acetate, reference compound] (Ac-[d2Nal][dPhe(4-Cl)][d3Pal]SY[dCit]LRP[dA]-NH2)
[1]; 100 μL of 200 mM trifluoroacetic acid solution added to 2.5 mg
  physical form after mixing: milky free flowing suspension

## [dTrp(2-Me)]CF[dW]KTC[Trp(2-Me)]-NH2 (disulfide 2-7)
[1]; [4]
  physical form after mixing: Free flowing suspensions

## Ac-D-Nal-D-pClPhe-D-Pal-Ser-Tyr-D-Hci-Leu-Lys(iPr)-Pro-D-Ala-NH2 [Teverelix acetate]
[1]; 150 mM TFA (3 mols/mol): 200 μL to approximately 15 mg (Example 6) or 1 mL to approximately 75 mg (Example 7)
  physical form after mixing: flowing milky suspension
[1]; 150 mM TFA suspension freeze-dried overnight, 1 mL of water and 0.2 M acetate buffer pH 4.0 added
  physical form after freeze-drying and reconstitution: flowing milky suspension
[1]; 150 mM TFA suspension freeze-dried overnight, 200 μL of water or 5% mannitol added
  physical form after freeze-drying and reconstitution: flowing milky suspension
[1]; 20 μL of TFA (3 mols/mol) added to gel of approximately 15 mg in 200 μL water
  physical form after addition of TFA to the gel: fluid, flowing milky pearly suspension
[1]; 100 μL of 150 mM trifluoromethane sulfonic acid solution added to 7.5 mg
  physical form after mixing: free flowing milky suspension
[1]; 100 μL of 250 mM H2SO4 added to 7.5 mg (5 mols/mol), after several hours
  physical form after mixing: flowing milky suspension
[1]; 100 μL of TFA of various concentrations added to 7.5 mg, molar ratio ranging from 1 to 3, gels at other ratios
  TFA/Teverelix molar ratio at which a flowing milky suspension was obtained: 1.6
[1]; 200 μL of 75 mM TFA with approximately 15 mg (1.5 mol/mol)
  physical form after mixing: transparent gel
[1]; 200 μL of 100 mM TFA added to approximately 15 mg (2 mols/mol)
  physical form after mixing: flowing milky suspension
[1]; 200 μL of 150 mM TFA added to 5 to 30 mg (25 to 150 mg/mL)
  concentration at which a flowing milky suspension was obtained: up to 100 mg/mL
[1]; H2SO4 suspension freeze-dried overnight, 100 μl of water or 5% mannitol added
  physical form after freeze-drying and reconstitution: flowing milky suspension
[1]; approximately 15 mg in 200 μL of water, vortex one minute
  physical form after mixing: transparent gel
[1]; suspension from 100 μL of 250 mM H2SO4 and 7.5 mg
  microcrystal length: about 100 μm
[3]
  stability of the reconstituted suspensions: at least 3 days

## [dF]CY[dW]KVCW-NH2 (disulfide 2-7)
[1]; [4]
  physical form after mixing: Free flowing suspensions

## D-Nal-c[Cys-Tyr-D-Trp-Lys-Val-Cys]-Trp(2Me)-NH2
[1]; [4]
  physical form after mixing: Free flowing suspensions

## CC(=O)N[C@H](Cc1ccc2ccccc2c1)C(=O)N[C@H](Cc1ccc(Cl)cc1)C(=O)N[C@H](Cc1cccnc1)C(=O)N[C@@H](CO)C(=O)N[C@@H](Cc1ccc(O)cc1)C(=O)N[C@H](CCCCNC(N)=O)C(=O)N[C@@H](CC(C)C)C(=O)N[C@@H](CCCCNC(C)C)C(=O)N1CCC[C@H]1C(=O)N[C@H](C)C(N)=O [Teverelix trifluoroacetate, Ac-D-Nal-D-pClPhe-D-Pal-Ser-Tyr-D-Hci-Leu-Lys(iPr)-Pro-D-Ala-NH2] (Ac-[d2Nal][dPhe(4-Cl)][d3Pal]SY[d(hCit)]L[Lys(iPr)]P[dA]-NH2)
[2]; rats, 1 mg sub-cutaneously, suspension in 5% mannitol
  sustained release of the peptide, duration: several weeks
